Experimental data as given in ChEMBL document CHEMBL3507680, “University of Dundee, Gates Library screen for HepG2 cell viability”.

Assay: Human HepG2 cell viability assay in 384 well format
Type: toxicity, cell-based
Parameters: dose 125 nL, time 70.5 hour; concentration not given beside the values
Conditions: HepG2 cells, read-out: Inhibition

SMILES	cytotoxicity at 70.5 h [%]
O=C(Cc1ccccn1)N1CCC2(CC1)[C@H](O)C[C@@H]2O	-12.4
CSc1ncc(CN2CC(Oc3c(C)cccc3C)C2)cn1	-2.81
CC(C)c1cc(=O)[nH]c(-c2ccccc2CN2CCCCCC2)n1	-13.2
CC(C)c1ncc(CN2C[C@@H](CN3CCCN(C)CC3)[C@@H](CO)C2)cn1	-3.2
Cc1ccnn1CC(=O)N1CCN(C2CCc3ccccc3C2)CC1 (stereo unspecified)	3.04
Cc1nnc(CN2CCC3(CCC(=O)N([C@H]4CC[C@H](O)CC4)C3)CC2)o1	-8.57
CSc1ccc(CN(CCO)C(=O)CCc2cccc(F)c2)cc1	-15.9
Cc1cc(F)cc(CN2CCCn3nc(CNS(C)(=O)=O)cc3C2)c1	0.898
O=C1CCOCCN1Cc1ccc(C(F)(F)F)c(F)c1	14.1
COc1ccc(Cl)cc1S(=O)(=O)N(C)CC(=O)Nc1cccnc1	-5.02
CC(C)=CCN1CCN(Cc2nccn2C)[C@H]2CS(=O)(=O)C[C@H]21	-7.09
COCC1CCN(C(C(=O)O)c2c(F)cccc2OC(C)C)CC1 (stereo unspecified)	-6.42
CN(Cc1cc[nH]n1)C(=O)c1cn(Cc2ccccc2Cl)nn1	-9.32
Cc1cc(C(=O)N2CCC(C)CC2)ccc1NS(C)(=O)=O	-4.78
Cc1cnccc1NCCn1ccnc1C1CCOC1 (stereo unspecified)	-3.31
COc1cc(C)c(C)cc1S(=O)(=O)N(C)CC(=O)Nc1ccon1	-15.2
CCn1cnnc1CCNC(=O)C1COc2ccc(OC)cc2C1 (stereo unspecified)	-11.5
COCCNC(=O)c1cc(S(=O)(=O)N2CCCC2)cs1	14.3
COc1nccc(N2CC[C@H](CO)[C@@H](O)C2)c1C#N	-6.06

SMILES	cytotoxicity at 70.5 h [%]
COc1ccc(Cl)cc1S(=O)(=O)N(C)CC(=O)Nc1ccon1	-12
O=S(=O)(Cc1c(F)cccc1Cl)NCCCN1CCCCCC1	-1.18
Cn1c(C(=O)N2CCc3[nH]cnc3C2C(=O)O)ccc1-c1ccccc1 (stereo unspecified)	-2.27
NC(=O)C1CCN(C(=O)c2cc(S(=O)(=O)N3CCCCC3)cs2)CC1	14.2
CC1(C)CN(C(=O)c2ncc(F)cc2F)CCC1(O)CN1CCOCC1 (stereo unspecified)	-0.112
O=C(NCCc1ccncc1)c1cccc(S(=O)(=O)N[C@@H]2CCNC2)c1	19
Cn1ccnc1CN1CCC(c2nnc(Cn3cccn3)n2C)CC1	24.7
CC1(C)CN(Cc2c[nH]c(CC3CCCC3)n2)CC[C@]1(C)O	-5.46
CCC(CO)n1cnc2scc(C)c2c1=O (stereo unspecified)	-22.7
Cc1nc2c(c(N3CCN(Cc4ccco4)CC3)n1)CCNCC2	-4.87
OCc1ccc(-c2nccn2CCC2=CCCCC2)o1	-9.58
CN1CCN(CCCNS(=O)(=O)Cc2ccccc2F)CC1	-0.252
CCC(C(=O)NCc1ccncc1)N(c1ccc(F)cc1)S(C)(=O)=O (stereo unspecified)	-0.482
COc1ccc(Cl)cc1S(=O)(=O)N(C)CC(=O)Nc1ccccc1	-9.85
COc1cc(N2CCOC(c3ccc(F)cc3)C2)ncn1 (stereo unspecified)	-6.22
COCCn1ccnc1C1CCCN(c2ncnc3c2CCC3)C1 (stereo unspecified)	-0.0473
CC(C)(NC(=O)C1CCN(C2CCCCC2)CC1)c1nnc(N)s1	1.76
CCc1ccc(CN2CCNC(C(=O)N3CCN(C)CC3)C2)o1 (stereo unspecified)	-3.44
CCc1ccc(CN2CCC(CNS(=O)(=O)C3CC3)C2)nc1 (stereo unspecified)	-2.29

SMILES	cytotoxicity at 70.5 h [%]
CC(Nc1ncnc2c1CCNC2)c1ccc(C(C)(C)C)cc1 (stereo unspecified)	2.81
Cc1cc(CN(C)c2nc(-c3ccccn3)nc3c2CCNCC3)n[nH]1	-11.1
CC(C)c1cc(N(C)Cc2cc(C3CC3)on2)n2nccc2n1	-8.41
CCNc1ccnc(N2Cc3cnn(Cc4ccc(F)cc4)c3C2)n1	-4
Cc1ccc(-c2cn[nH]c2C2CCCN(c3ccnc(C)n3)C2)cc1 (stereo unspecified)	-1.31
CCCOC(=O)N1CCC(c2nnc(Cn3cccn3)n2C2CC2)CC1	4.42
CCN1CCN(C(=O)c2cccc(CN3CCOCC3)c2)CC1	-5.52
CCC[C@@H]1CN(Cc2cc(OC)c3c(c2)OCO3)C[C@H]1C(=O)O	-2.82
CCN(CC1CCCN(CCc2cccc(OC)c2)C1)C(=O)CCSC (stereo unspecified)	-6.12
Fc1ccccc1CN1CCCN(c2ccc3cc[nH]c3n2)CC1	-4.59
CC1CCN(S(=O)(=O)c2ccc(C(=O)N3CCSCC3)cc2)CC1	-13
CC1CCCN(Cc2ccc(C(N)=O)cc2)C1 (stereo unspecified)	0.459
COCC(=O)N1CCCC(C(=O)N(C)CCCc2cnn(C)c2)C1 (stereo unspecified)	1
Cc1cc(-c2ccncc2)ccc1OCC(N)=O	-5
COC(=O)Cn1c(C)cc(=O)c2cc(F)ccc21	-4.13
O=C(c1cccnc1N1CCN(Cc2ccoc2)CC1)N1CCCCC1	-0.284
CCCn1ccnc1CN1C[C@@H](CN2CCCCC2)[C@@H](CO)C1	-2.74
CCOc1ccc(CNCC(O)c2ccccc2)cc1Cl (stereo unspecified)	-4.88
